Assay results taken from PubChem BioAssay AID1963847 (Molecular Pharmacology Branch, DTP, NCI, 2024).
pIC50: −log10 of the molar value.

System: 415267-285-R-J2-PDC complex spheroid viability
Test: Anticancer human tumor 415267-285-R-J2-PDC patient-derived breast carcinoma cell line growth inhibition [POLQ]
Settings: for pIC50: curve of first compound; for viability, T/C: stronger effect = lower value
Outline: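 Growth inhibition in 3D: complex spheroids (tumor PDC, HUVEC, MSC) treated with POLQ inhibitor combinations; where Cmax unknown, highest tested concentration 10 microM, except SN-38 at 1 microM.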
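Also: spheroids exposed to compounds for one week before readout.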
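For viability, T/C in this document: luminescence used as stand-in measure of viable cells; 100% = DMSO vehicle control viability.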

SMILES: Nc1ccn(C2OC(CO)C(O)C2(F)F)c(=O)n1 (centres undefined) + COC1C(OC(N)=O)C(O)C(Oc2ccc3c(O)c(NC(=O)c4ccc(O)c(CC=C(C)C)c4)c(=O)oc3c2C)OC1(C)C
- pIC50 (second compound 0.0316 µM): > 7.50
- pIC50 (second compound 0.1 µM): > 7.50
- pIC50 (second compound 0.316 µM): > 7.50
- pIC50 (second compound 1 µM): > 7.50
- pIC50 (second compound 3.16 µM): > 7.50
- pIC50 (second compound 10 µM): > 7.50
- viability, T/C (second compound 0.0316 µM, first compound 0.0316 µM): 6.95%
- viability, T/C (second compound 0.0316 µM, first compound 0.1 µM): 7.41%
- viability, T/C (second compound 0.0316 µM, first compound 0.316 µM): 5.11%
- viability, T/C (second compound 0.0316 µM, first compound 1 µM): 5.97%
- viability, T/C (second compound 0.0316 µM, first compound 3.16 µM): 5.96%
- viability, T/C (second compound 0.0316 µM, first compound 10 µM): 7.99%
- viability, T/C (second compound 0.1 µM, first compound 0.0316 µM): 7.63%
- viability, T/C (second compound 0.1 µM, first compound 0.1 µM): 6.2%
- viability, T/C (second compound 0.1 µM, first compound 0.316 µM): 4.86%
- viability, T/C (second compound 0.1 µM, first compound 1 µM): 5.57%
- viability, T/C (second compound 0.1 µM, first compound 3.16 µM): 5.43%
- viability, T/C (second compound 0.1 µM, first compound 10 µM): 5.04%
- viability, T/C (second compound 0.316 µM, first compound 0.0316 µM): 6.64%
- viability, T/C (second compound 0.316 µM, first compound 0.1 µM): 8.84%
- viability, T/C (second compound 0.316 µM, first compound 0.316 µM): 5.17%
- viability, T/C (second compound 0.316 µM, first compound 1 µM): 4.85%
- viability, T/C (second compound 0.316 µM, first compound 3.16 µM): 6.19%
- viability, T/C (second compound 0.316 µM, first compound 10 µM): 4.45%
- viability, T/C (second compound 1 µM, first compound 0.0316 µM): 31.1%
- viability, T/C (second compound 1 µM, first compound 0.1 µM): 5.76%
- viability, T/C (second compound 1 µM, first compound 0.316 µM): 5.6%
- viability, T/C (second compound 1 µM, first compound 1 µM): 5.77%
- viability, T/C (second compound 1 µM, first compound 3.16 µM): 5.83%
- viability, T/C (second compound 1 µM, first compound 10 µM): 5.65%
- viability, T/C (second compound 3.16 µM, first compound 0.0316 µM): 7.56%
- viability, T/C (second compound 3.16 µM, first compound 0.1 µM): 6.05%
- viability, T/C (second compound 3.16 µM, first compound 0.316 µM): 5.39%
- viability, T/C (second compound 3.16 µM, first compound 1 µM): 6.49%
- viability, T/C (second compound 3.16 µM, first compound 3.16 µM): 5.4%
- viability, T/C (second compound 3.16 µM, first compound 10 µM): 5.83%
- viability, T/C (second compound 10 µM, first compound 0.0316 µM): 24.7%
- viability, T/C (second compound 10 µM, first compound 0.1 µM): 5.53%
- viability, T/C (second compound 10 µM, first compound 0.316 µM): 6.82%
- viability, T/C (second compound 10 µM, first compound 1 µM): 6.71%
- viability, T/C (second compound 10 µM, first compound 3.16 µM): 7.68%
- viability, T/C (second compound 10 µM, first compound 10 µM): 5.33%

SMILES: CC(=O)O[C@H]1C(=O)[C@@]2(C)[C@H]([C@H](OC(=O)c3ccccc3)[C@]3(O)C[C@H](OC(=O)[C@H](O)[C@@H](NC(=O)c4ccccc4)c4ccccc4)C(C)=C1C3(C)C)[C@]1(OC(C)=O)CO[C@@H]1C[C@@H]2O + Nc1ccc(C#CCN(C(=O)Cc2ncc(C(F)(F)F)cc2C(F)(F)F)c2ccc(F)cc2)nn1
- pIC50 (second compound 0.0316 µM): > 8.02
- pIC50 (second compound 0.1 µM): > 8.02
- pIC50 (second compound 0.316 µM): > 8.02
- pIC50 (second compound 1 µM): > 8.02
- pIC50 (second compound 3.16 µM): > 8.02
- pIC50 (second compound 10 µM): > 8.02
- viability, T/C (second compound 0.0316 µM, first compound 0.00949 µM): 16.4%
- viability, T/C (second compound 0.0316 µM, first compound 0.03 µM): 11.2%
- viability, T/C (second compound 0.0316 µM, first compound 0.0949 µM): 7.8%
- viability, T/C (second compound 0.0316 µM, first compound 0.3 µM): 12.3%
- viability, T/C (second compound 0.0316 µM, first compound 0.949 µM): 7.65%
- viability, T/C (second compound 0.0316 µM, first compound 3 µM): 9.67%
- viability, T/C (second compound 0.1 µM, first compound 0.00949 µM): 28.2%
- viability, T/C (second compound 0.1 µM, first compound 0.03 µM): 10.1%
- viability, T/C (second compound 0.1 µM, first compound 0.0949 µM): 7.84%
- viability, T/C (second compound 0.1 µM, first compound 0.3 µM): 8.82%
- viability, T/C (second compound 0.1 µM, first compound 0.949 µM): 5.94%
- viability, T/C (second compound 0.1 µM, first compound 3 µM): 7.04%
- viability, T/C (second compound 0.316 µM, first compound 0.00949 µM): 25.4%
- viability, T/C (second compound 0.316 µM, first compound 0.03 µM): 10.4%
- viability, T/C (second compound 0.316 µM, first compound 0.0949 µM): 8.11%
- viability, T/C (second compound 0.316 µM, first compound 0.3 µM): 6.83%
- viability, T/C (second compound 0.316 µM, first compound 0.949 µM): 6.61%
- viability, T/C (second compound 0.316 µM, first compound 3 µM): 9.16%
- viability, T/C (second compound 1 µM, first compound 0.00949 µM): 17.4%
- viability, T/C (second compound 1 µM, first compound 0.03 µM): 9.17%
- viability, T/C (second compound 1 µM, first compound 0.0949 µM): 6.64%
- viability, T/C (second compound 1 µM, first compound 0.3 µM): 8.77%
- viability, T/C (second compound 1 µM, first compound 0.949 µM): 7.65%
- viability, T/C (second compound 1 µM, first compound 3 µM): 7.96%
- viability, T/C (second compound 3.16 µM, first compound 0.00949 µM): 14.3%
- viability, T/C (second compound 3.16 µM, first compound 0.03 µM): 10%
- viability, T/C (second compound 3.16 µM, first compound 0.0949 µM): 8.75%
- viability, T/C (second compound 3.16 µM, first compound 0.3 µM): 6.53%
- viability, T/C (second compound 3.16 µM, first compound 0.949 µM): 7.79%
- viability, T/C (second compound 3.16 µM, first compound 3 µM): 7.72%
- viability, T/C (second compound 10 µM, first compound 0.00949 µM): 13.3%
- viability, T/C (second compound 10 µM, first compound 0.03 µM): 9.57%
- viability, T/C (second compound 10 µM, first compound 0.0949 µM): 8.39%
- viability, T/C (second compound 10 µM, first compound 0.3 µM): 9.61%
- viability, T/C (second compound 10 µM, first compound 0.949 µM): 8.58%
- viability, T/C (second compound 10 µM, first compound 3 µM): 8.25%
